Consider eight compounds from patent publication US20060128723A1, “Sulptionamide compounds that modulate chemokine receptor activity (CCR4)” (priority 2003, published 2006).

Structures can show the parent of a compound that is named as a salt.

As for `COc1nc(Br)cnc1NS(=O)(=O)c1scc(Cl)c1Cl` (as salt: ammonium) [Example 5, N-(5-Bromo-3-methoxypyrazin-2-yl)-3,4-dichlorothiophene-2-sulphonamide, ammonium salt], the melting point is 204 °C (dec.).
To `COc1nc(Br)cnc1NS(=O)(=O)c1sc(Cl)c(Cl)c1Cl` (as salt: ammonium) [Example 6, N-(5-Bromo-3-methoxypyrazin-2-yl)-3,4,5-trichlorothiophene-2-sulphonamide, ammonium salt] belongs 211 °C (dec.).
To `COc1nccnc1NS(=O)(=O)c1sc(Cl)c(Cl)c1Cl` [Example 1, 3,4,5-Trichloro-N-(3-methoxypyrazin-2-yl)thiophene-2-sulphonamide] belongs 212 to 214 °C; to `COc1nccnc1NS(=O)(=O)c1scc(Cl)c1Cl` [Example 2, 3,4-Dichloro-N-(3-methoxypyrazin-2-yl)thiophene-2-sulphonamide], 151.5 to 152.5 °C; to `COc1nc(C)cnc1NS(=O)(=O)c1sc(Cl)c(Cl)c1Cl` [Example 3, 3,4,5-Trichloro-N-(3-methoxy-5-methylpyrazin-2-yl)thiophene-2-sulphonamide], 146 to 147 °C.
The value for `COc1nc(C)cnc1NS(=O)(=O)c1scc(Cl)c1Cl` [Example 4, 3,4-Dichloro-N-(3-methoxy-5-methylpyrazin-2-yl)thiophene-2-sulphonamide] was 117 to 118 °C; that for `COc1nc(Cl)cnc1NS(=O)(=O)c1sc(Cl)c(Cl)c1Cl` [Example 7, 3,4,5-Trichloro-N-(5-chloro-3-methoxypyrazin-2-yl)thiophene-2-sulphonamide.] was 178 to 179 °C; that for `COc1nc(Cl)cnc1NS(=O)(=O)c1scc(Cl)c1Cl` [Example 8, 3,4-Dichloro-N-(5-chloro-3-methoxypyrazin-2-yl)thiophene-2-sulphonamide.] was 116 to 117 °C.
